PubChem BioAssay (NCI)
“And” between values parts separate entries of the source, which are not always exact repeats. Identical values can stand only once.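 In this assay, cells in 96-well plates receive the compound at five concentrations for 48 hours. Endpoints are linearly interpolated between the surrounding concentrations. At the GI50, growth is halved. TGI is the concentration that stops growth completely.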 Where a SMILES comes first, the peptide text is derived from it. [ ]: non-standard residue; d: D form. 2Nal = N[CH](Cc1ccc2ccccc2c1)C(=O)O

Assays:
Assay in all cases: growth of human tumour cells (NCI), 48 h
CAKI-1 renal = tested on: CAKI-1 renal
HCC-2998 colon = tested on: HCC-2998 colon
MALME-3M melanoma = tested on: MALME-3M melanoma
HCT-116 colon = tested on: HCT-116 colon
EKVX NSCLC = tested on: EKVX NSCLC
M14 melanoma = tested on: M14 melanoma
SF-539 CNS = tested on: SF-539 CNS
SK-OV-3 ovarian = tested on: SK-OV-3 ovarian
OVCAR-3 ovarian = tested on: OVCAR-3 ovarian
LOX IMVI melanoma = tested on: LOX IMVI melanoma

| SMILES | GI50 (CAKI-1 renal) | TGI (CAKI-1 renal) | GI50 (HCC-2998 colon) | TGI (HCC-2998 colon) | TGI (MALME-3M melanoma) | GI50 (HCT-116 colon) | TGI (HCT-116 colon) | GI50 (EKVX NSCLC) | TGI (EKVX NSCLC) | GI50 (M14 melanoma) | TGI (M14 melanoma) | GI50 (SF-539 CNS) | TGI (SF-539 CNS) | GI50 (SK-OV-3 ovarian) | TGI (SK-OV-3 ovarian) | GI50 (OVCAR-3 ovarian) | TGI (OVCAR-3 ovarian) | TGI (LOX IMVI melanoma) | GI50 (MALME-3M melanoma) | GI50 (LOX IMVI melanoma) |
| --- | --- | --- | --- | --- | --- | --- | --- | --- | --- | --- | --- | --- | --- | --- | --- | --- | --- | --- | --- | --- |
| CC(C)C(NC(=O)C(CCCCN)NC(=O)C(Cc1c[nH]c2ccccc12)NC(=O)C(Cc1ccc(O)cc1)NC(=O)C(CS)NC(=O)C(N)Cc1ccc2ccccc2c1)C(=O)NC(CS)C(=O)NC(C(N)=O)C(C)O (configuration not stated) (H-[2Nal]CYWKVCT-NH2; configuration not given here) | > 100000 nM | > 100 µM | > 100 µM | > 100 µM | > 12.5 µM | 2520 nM | > 12.5 µM and 10.9 µM | > 100000 nM | > 100 µM | > 100000 nM | > 100 µM | > 100000 nM | > 100 µM | > 100 µM | > 100 µM | > 100000 nM | > 100 µM | > 12.5 µM |  |  |
| O=c1c(-c2ccc(O)cc2)coc2cc(OC3OC(CO)C(O)C(O)C3O)cc(O)c12 (configuration not stated) | > 10000 nM | > 100 µM |  | > 100 µM | > 100 µM |  | > 100 µM |  | > 100 µM | > 100000 nM | > 100 µM |  | > 100 µM | > 100 µM | > 100 µM |  | > 100 µM | > 100 µM | > 100000 nM |  |
| COC(=O)C1=C(C(=O)OC)C2OC1c1cc3ccccc3cc12 |  | 4.26 µM |  | 23.4 µM | 6 µM |  | 4.29 µM |  | 17.6 µM |  | 4.83 µM |  | 12.1 µM |  | 33 µM |  | 7.29 µM | 30.5 µM |  |  |
| CCOC(=O)c1csc(NC(=O)COc2cccc(/C=C3\CSc4ccccc4C3=O)c2)n1 | 1260 nM | 18.2 µM | 0.0447 µM | 0.382 µM | 1.22 µM | 1630 nM | 3.04 µM | 2290 nM | 19.9 µM | 1860 nM | 4.18 µM | 421 nM | 1.6 µM | 13.1 µM | 25.9 µM | 158 nM | 0.332 µM | 0.208 µM | 296 nM | 71 nM |
| CCOc1c(C#N)c2c(N)ncnc2n1C1OC(CO)C(O)C1O (configuration not stated) | 3130 nM | 55.9 µM | 3.92 µM | 28.2 µM | 24.2 µM | 881 nM | 3.27 µM | 4740 nM | > 100 µM | 1920 nM | 5.57 µM | 4060 nM | 50 µM | 3.34 µM | 53.1 µM | 2530 nM | 7.09 µM | > 100 µM | 3620 nM | 2980 nM |
| C1CCN2CC3CCCN4CCCC(C2C1)C34 (configuration not stated) |  | > 100 µM |  | > 100 µM | > 100 µM |  | > 100 µM |  | > 100 µM |  | > 100 µM |  | > 100 µM |  | > 100 µM |  | > 100 µM | > 100 µM |  |  |
| CC(C)CCC(=O)[C@@H](C)[C@H]1[C@@H](OC2OCC(O)C(O)C2NS(C)(=O)=O)C[C@H]2[C@@H]3CC=C4C[C@@H](O)CC[C@]4(C)[C@H]3CC[C@]12C (some centres not stated) | 1160 nM | 5.56 µM | 5.04 µM | 11.7 µM | 4.29 µM | 715 nM | 5.74 µM | 1460 nM | 8.85 µM | 512 nM | 1.58 µM | 202 nM | 1.11 µM | 1.27 µM | 5.04 µM | 2720 nM | 10.3 µM | 5.22 µM | 910 nM | 1190 nM |
| NNC(=O)N/N=C1\C(=O)N(c2nccs2)C(=O)C(=O)C1c1nc2ccccc2s1 (configuration not stated) |  | > 100 µM |  | > 100 µM | > 100 µM |  | > 100 µM |  | > 100 µM |  | > 100 µM |  | > 100 µM |  | > 100 µM |  | > 100 µM | > 100 µM |  |  |
| CC1=NN(C(=O)c2ccncc2)C(=O)C1N=Nc1ccc2ccccc2c1 (configuration not stated) |  | > 100 µM |  | 15.2 µM | > 100 µM |  | > 100 µM |  | > 100 µM |  | > 96.2 µM |  | > 100 µM |  | > 100 µM |  | > 100 µM | > 100 µM |  |  |
| Cc1nnc(-c2ccc(C)c(-c3ccc(C(=O)NCc4ccc(Cl)cc4)cc3)c2)o1 | 11800 nM | > 25 µM | 17.5 µM | > 25 µM | 24.9 µM | 12600 nM | > 25 µM | 7020 nM | > 25 µM | 15700 nM | > 25 µM | > 22700 nM | > 25 µM | 9.53 µM | > 25 µM | 11600 nM | > 25 µM | > 25 µM | 6150 nM | > 25000 nM |
| NNC(=S)Nc1cccc(Cl)c1 |  | > 100 µM |  | > 100 µM | > 100 µM |  | > 100 µM |  | > 100 µM |  | > 100 µM |  | > 100 µM |  | > 100 µM |  | 92.3 µM | > 100 µM |  |  |
| C#CCN(N=O)C(=O)NCCCC(NC(C)=O)C(=O)NCc1ccccc1 (configuration not stated) |  | > 100 µM |  | > 100 µM | > 100 µM |  | > 100 µM |  | > 100 µM |  | > 100 µM |  | > 100 µM |  | > 100 µM |  | > 100 µM | > 100 µM |  |  |
| O=S(=O)(Nc1ccc2ccccc2c1)c1ccc(-c2cnc(C3CC3)o2)cc1 | 539 nM | 38 µM | 1.48 µM | 6.06 µM | 24 µM | 746 nM | 12.7 µM | 2760 nM | 59.9 µM | 701 nM | 14.9 µM | 1170 nM | 3.92 µM | 1.54 µM | 32.3 µM | 435 nM | 5.37 µM | 17.1 µM | 999 nM | 725 nM |
| CN1CCN(Cc2ccc(NC(=O)c3cncc(C#Cc4cnn5ccccc45)c3)cc2C(F)(F)F)CC1 | 940 nM | 4.56 µM | 0.902 µM | 3.07 µM | 1.45 µM | 294 nM | 1.47 µM | 786 nM | 2 µM | 576 nM | 1.39 µM | 518 nM | 1.25 µM | 1.51 µM | 4.61 µM | 1430 nM | 3.62 µM | 1.37 µM | 604 nM | 588 nM |
| C=C1C(=O)OC2C1C(OC(=O)/C(C)=C\C)CC1(CO1)C1C(O)C=C(C)C21O (configuration not stated) |  | 6.36 µM |  | 15.1 µM | 7.65 µM |  | 3.29 µM |  | 26.5 µM |  | 7.58 µM |  | 8.06 µM |  | 30.5 µM |  | 11.3 µM | 30.6 µM |  |  |
